The test system of assay [1] is Peronospora brassicae. Put plainly: Test on Peronospora brassicae, cabbage plants, preventive spray. The assay is classed as in vivo. Particulars: 330 ppm; cabbage plants (Eminence variety); sprayed 24 hours before contamination; grading 5 days after contamination vs control plants. As to the method:
(§1) The active ingredient tested is prepared by potter homogenisation in a concentrated suspension type formulation at 100 g/l. This suspension is then diluted with water to obtain the desired active material concentration.
Cabbage plants (Eminence variety) in starter cups, sown on a 50/50 peat soil-pozzolana substrate and grown at 18-20° C., are treated at the cotyledon stage by spraying with the aqueous suspension described above. Plants, used as controls, are treated with an aqueous solution not containing the active material.
After 24 hours, the plants are contaminated by spraying them with an aqueous suspension of Peronospora brassicae spores (50,000 spores per ml). The spores are collected from infected plant
The contaminated cabbage plants are incubated for 5 days at 20° C., under a humid atmosphere.
Grading is carried out 5 days after the contamination, in comparison with the control plants.

The subject of assay [2] is Alternaria brassicae. The assay can be described thus: In vivo test on Alternaria brassicae (leaf spot of crucifers), radish plants, preventive spray. As to conditions: 330 ppm; comparison compounds of WO 01/11965. As to the method: as §1
Radish plants (Pernot variety) in starter cups, sown on a 50/50 peat soil-pozzolana substrate and grown at 18-20° C., are treated at the cotyledon stage by spraying with the aqueous suspension described above.
Plants, used as controls, are treated with an aqueous solution not containing the active material.
After 24 hours, the plants are contaminated by spraying them with an aqueous suspension of Alternaria brassicae spores (40,000 spores per cm^3). The spores are collected from a 12-13-day-old culture.
The contaminated radish plants are incubated for 6-7 days at about 18° C., under a humid atmosphere.
Grading is carried out 6 to 7 days after the contamination, in comparison with the control plants.

In assay [3] the test system is Botrytis cinerea. The assay can be described thus: In vivo test on Botrytis cinerea (cucumber grey mould), cucumber plants, preventive spray. Particulars: 330 ppm; comparison compounds of WO 01/11965. The procedure:
as §1
Cucumber plants (Marketer variety) in starter cups, sown on a 50/50 peat soil-pozzolana substrate and grown at 18-20° C., are treated at the cotyledon Z11 stage by spraying with the aqueous suspension described above. Plants, used as controls, are treated with an aqueous solution not containing the active material.
After 24 hours, the plants are contaminated by depositing drops of an aqueous suspension of Botrytis cinerea spores (150,000 spores per ml) on upper surface of the leaves. The spores are collected from a 15-day-old culture and are suspended in a nutrient solution-composed of: • 20 g/L of gelatin • 50 g/L of cane sugar • 2 g/L of NH4NO3 • 1 g/L of KH2PO4
The contaminated cucumber plants are settled for 5/7 days in a climatic room at 15-11° C. (day/night) and at 80% relative humidity.
Grading is carried out 5/7 days after the contamination, in comparison with the control plants.

Assay [4] relates to Peronospora parasitica. The assay can be described thus: Efficacy against Peronospora parasitica (comparison compound). Type of assay: in vivo. Particulars: 330 ppm; comparison compound of WO 01/11965.

As to `CC1=C(C(=O)NCC(NC(=O)c2c(Cl)cccc2Cl)c2ncc(C(F)(F)F)cc2Cl)SCCO1` (stereo not shown) [Compound 46], the “protection (good (at least 50%) to total)” value in assay [1] is recorded as “at least 50%”.

As to `O=C(Cc1cccs1)NCc1ncc(C(F)(F)F)cc1Cl` [compound 101, N-{[3-chloro-5-(trifluoromethyl)-2-pyridinyl]methyl}-5-thienylacetamide], the “effectiveness on Alternaria brassicae (in words)” value in assay [2] is listed as “poor efficacy”. In addition, the “effectiveness on Botrytis cinerea (in words)” value in assay [3] was “no efficacy”. The “efficacy against Peronospora parasitica (in words)” value in assay [4] is reported as “no efficacy”.

As for `CCNC(=O)C(Cc1ncc(C(F)(F)F)cc1Cl)NC(=O)c1ccccc1` (stereo not shown) [compound 304, N-{1-ethylcarbamoyl-2-[3-chloro-5-(trifluoromethyl)-2-pyridinyl]-ethyl}-benzamide], in assay [3], the “effectiveness on Botrytis cinerea (in words)” value is listed as “zero effectiveness”.

Consider `CCNC(=O)C(Cc1ncc(C(F)(F)F)cc1Cl)NC(=O)c1ccc(Cl)cc1` (stereo not shown) [compound 306, N-{1-ethylcarbamoyl-2-[3-chloro-5-(trifluoromethyl)-2-pyridinyl]ethyl}-4-chlorobenzamide], for which the “effectiveness on Botrytis cinerea (in words)” value in assay [3] was “zero effectiveness”.

As for `CCNC(=O)C(Cc1ncc(C(F)(F)F)cc1Cl)NC(=O)c1cccc([N+](=O)[O-])c1` (stereo not shown) [compound 307, N-{1-ethylcarbamoyl-2-[3-chloro-5-(trifluoromethyl)-2-pyridinyl]ethyl}-3-nitrobenzamide], in assay [2], the “effectiveness on Alternaria brassicae (in words)” value is listed as “poor effectiveness”. For the same compound, in assay [3], the “effectiveness on Botrytis cinerea (in words)” value is listed as “zero effectiveness”.

In the case of `CCNC(=O)C(Cc1ncc(C(F)(F)F)cc1Cl)NC(=O)c1ccccc1Br` (stereo not shown) [compound 310, N-{1-ethylcarbamoyl-2-[3-chloro-5-(trifluoromethyl)-2-pyridinyl]ethyl}-2-bromobenzamide], the “effectiveness on Botrytis cinerea (in words)” value in assay [3] is “zero effectiveness”.

As for `CNC(=O)C(Cc1ncc(C(F)(F)F)cc1Cl)NC(=O)c1ccccc1` (stereo not shown) [compound 314, N-{1-methylcarbamoyl-2-[3-chloro-5-(trifluoromethyl)-2-pyridinyl]ethyl}-benzamide], the “effectiveness on Botrytis cinerea (in words)” value in assay [3] is reported as “zero effectiveness”.

`CNC(=O)C(Cc1ncc(C(F)(F)F)cc1Cl)NC(=O)c1ccc(OC)cc1` (stereo not shown) [compound 315, N-{1-methylcarbamoyl-2-[3-chloro-5-(trifluoromethyl)-2-pyridinyl]ethyl}-4-methoxybenzamide]: the “effectiveness on Botrytis cinerea (in words)” value in assay [3] is “zero effectiveness”.

For the compound `CNC(=O)C(Cc1ncc(C(F)(F)F)cc1Cl)NC(=O)c1ccc(-c2ccccc2)cc1` (stereo not shown) [compound 316, N-{1-methylcarbamoyl-2-[3-chloro-5-(trifluoromethyl)-2-pyridinyl]-ethyl}-4-phenylbenzamide], in assay [2], the “effectiveness on Alternaria brassicae (in words)” value is recorded as “poor effectiveness”. Also, in assay [3], the “effectiveness on Botrytis cinerea (in words)” value was “zero effectiveness”.

Source of the values: US8071627B2, “2-pyridinylethylcarboxamide derivatives and their use as fungicides” (Bayer SAS, priority 2003, dated 2011).
